Experiments:
hCA XII = hCA XII (Homo sapiens, UniProt O43570); test: stopped flow CO2 hydrase assay, hCA XII; format: biochemical; settings: errors ±5–10% of the stated values
Experimental: (§1) The activity of the CA-catalyzed CO2 hydration reaction was evaluated employing an applied photophysics stopped-flow instrument. […] A minimum of six traces of the starting 5–10% of the reaction were analysed to measure the initial velocity for each inhibitor. In a similar manner, the uncatalyzed rates were evaluated and subtracted from the overall calculated rates. Stock inhibitor solutions (10 mM) were prepared in distilled–deionized water, and dilutions up to 0.01 nM were prepared with distilled–deionized water after that. Preincubation of the inhibitor enzyme solutions at room temperature to enable the formation of the E-I complex was carried out for 15 min before starting the experiment. The inhibition constants were determined employing PRISM 3, while the kinetic parameters for the uninhibited enzymes were calculated using Lineweaver-Burk plots that comprise the mean of at least three separate measurements with errors ranging to ±5–10% of the stated values[37]^,[38].
(§2) This panel comprised the two ubiquitously expressed cytosolic hCA I and II isoforms, along with the two tumour-related transmembrane hCA IX and XII isoforms.

hCA IX = hCA IX (Homo sapiens, UniProt Q16790); test: stopped flow CO2 hydrase assay, hCA IX; format: biochemical; settings: errors ±5–10% of the stated values
Experimental: as §1, §2

hCA II = hCA II (Homo sapiens, UniProt P00918); test: stopped flow CO2 hydrase assay, hCA II; format: biochemical; settings: for folds of potency compared to AAZ against isoform hCA II: relative to AAZ (12.1 nM); for Ki: stopped flow CO2 hydrase assay, errors ±5–10% of the stated values; for inhibitory activity against hCA II (in words): compared to their para-sulphonamide analogues
Experimental: as §1, §2

hCA I = hCA I (Homo sapiens, UniProt P00915); test: stopped flow CO2 hydrase assay, hCA I; format: biochemical; settings: for folds higher potency against hCA I when compared to the standard (AAZ, V): relative to AAZ; for Ki: stopped flow CO2 hydrase assay, errors ±5–10% of the stated values
Chain of hCA I (P00915 whole entry): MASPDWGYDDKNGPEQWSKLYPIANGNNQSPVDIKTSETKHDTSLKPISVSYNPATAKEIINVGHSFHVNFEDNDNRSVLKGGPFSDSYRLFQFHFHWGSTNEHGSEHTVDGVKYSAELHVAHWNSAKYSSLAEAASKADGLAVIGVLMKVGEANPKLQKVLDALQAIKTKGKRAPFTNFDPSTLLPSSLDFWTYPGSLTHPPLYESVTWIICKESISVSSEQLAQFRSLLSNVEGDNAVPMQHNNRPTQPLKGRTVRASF
Experimental: as §1, §2

Chain of hCA XII (O43570 25-354): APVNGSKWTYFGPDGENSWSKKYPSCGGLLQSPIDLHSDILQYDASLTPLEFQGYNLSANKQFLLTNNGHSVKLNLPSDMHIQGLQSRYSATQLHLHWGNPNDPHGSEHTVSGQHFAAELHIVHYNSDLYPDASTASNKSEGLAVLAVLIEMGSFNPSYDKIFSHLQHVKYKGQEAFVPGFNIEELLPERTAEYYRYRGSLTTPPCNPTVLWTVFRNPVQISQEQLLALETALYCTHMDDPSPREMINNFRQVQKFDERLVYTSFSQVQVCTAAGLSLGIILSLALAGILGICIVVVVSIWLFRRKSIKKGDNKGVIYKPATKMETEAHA

| Ki (hCA XII) [nM] | Ki (hCA IX) [nM] | folds of potency compared to AAZ against isoform hCA II (hCA II) [folds] | Ki (hCA II) [nM] | folds higher potency against hCA I when compared to the standard (AAZ, V) (hCA I) [folds] | Ki (hCA I) [nM] | inhibitory activity against hCA II (in words) (hCA II) | inhibitory activity against hCA I (in words) (hCA I) | melting point [°C] | SMILES |
| --- | --- | --- | --- | --- | --- | --- | --- | --- | --- |
| 46.5 | 174 | 1.4 | 8.7 | 2.8 | 89.4 |  |  |  | NS(=O)(=O)c1ccc(Nc2ncnc3ccc(Br)cc23)cc1 [Compound 3a] |
| 39.4 | 95.3 |  | 5760 |  | 7100 | loss of activity | lost all activity |  | NS(=O)(=O)c1cccc(Nc2ncnc3ccc(Br)cc23)c1 [Compound 3b] |
| 65.7 | 180 | 5 | 2.4 |  | 600 |  |  |  | NS(=O)(=O)c1ccc(Nc2ncnc3ccc(-c4ccccc4)cc23)cc1 [Compound 4a, 4-((6-phenylquinazolin-4-yl)amino)benzenesulfonamide] |
| 67.4 | 86.9 |  |  |  | 651 |  |  |  | NS(=O)(=O)c1ccc(Nc2ncnc3ccc(-c4ccc(C=O)cc4)cc23)cc1 [Compound 4b, 4-((6–(4-formylphenyl)quinazolin-4-yl)amino)benzenesulfonamide] |
| 93 | 560 |  | 47.1 |  | 931 |  |  |  | NS(=O)(=O)c1ccc(Nc2ncnc3ccc(-c4ccc(F)cc4)cc23)cc1 [Compound 4c, 4-((6–(4-fluorophenyl)quinazolin-4-yl)amino)benzenesulfonamide] |
| 90.7 | 265 |  | 55.7 |  | 588 |  |  |  | NS(=O)(=O)c1ccc(Nc2ncnc3ccc(-c4cccc([N+](=O)[O-])c4)cc23)cc1 [Compound 4d, 4-((6–(3-nitrophenyl)quinazolin-4-yl)amino)benzenesulfonamide] |
| 77 | 86.9 | 2.6 | 4.6 | 2.7 | 91.2 |  |  |  | COc1ccc(-c2ccc3ncnc(Nc4ccc(S(N)(=O)=O)cc4)c3c2)cc1 [Compound 4e, 4-((6–(4-methoxyphenyl)quinazolin-4-yl)amino)benzenesulfonamide] |
| 89.5 | 86.5 |  | 37.1 | 4 | 60.9 |  |  |  | NS(=O)(=O)c1ccc(Nc2ncnc3ccc(-c4ccsc4)cc23)cc1 [Compound 4f, 4-((6-(thiophen-3-yl)quinazolin-4-yl)amino)benzenesulfonamide] |
| 30.5 | 229 |  | 231 |  | 3130 |  |  |  | NS(=O)(=O)c1cccc(Nc2ncnc3ccc(-c4ccc(F)cc4)cc23)c1 [Compound 4g, 3-((6–(4-fluorophenyl)quinazolin-4-yl)amino)benzenesulfonamide] |
| 49.8 | 337 |  | 112 |  | 548 |  |  |  | NS(=O)(=O)c1ccc(Nc2ncnc3ccc(-c4ccc(N5CCOCC5)cc4)cc23)cc1 [Compound 4h, 4-((6–(4-morpholinophenyl)quinazolin-4-yl)amino)benzenesulfonamide] |
| 52.7 | 488 |  | 2420 |  | 5580 |  |  |  | NS(=O)(=O)c1cccc(Nc2ncnc3ccc(-c4ccc(C=O)o4)cc23)c1 [Compound 4i, 3-((6–(5-formylfuran-2-yl)quinazolin-4-yl)amino)benzenesulfonamide] |
| 66.7 | 245 |  | 66.3 |  | 361 |  |  |  | NS(=O)(=O)c1ccc(Nc2ncnc3cc(-c4cccc(O)c4)ccc23)cc1 [Compound 4j, 4-((7–(3-hydroxyphenyl)quinazolin-4-yl)amino)benzenesulfonamide] |
| 69.7 | 90.3 |  | 2520 |  | 4680 | loss of activity |  |  | NS(=O)(=O)c1cccc(Nc2ncnc3cc(-c4cccc(O)c4)ccc23)c1 [Compound 4k, 3-((7–(3-hydroxyphenyl)quinazolin-4-yl)amino)benzenesulfonamide] |
| 89.4 | 88.8 |  | 678 |  | 6570 | loss of activity |  | 327 to 329 | NS(=O)(=O)c1cccc(Nc2ncnc3ccc(-c4ccccc4)cc23)c1 [Compound 4l, 3-((6-phenylquinazolin-4-yl)amino)benzenesulfonamide] |

Source: publication PMC8973350, “4-Anilinoquinazoline-based benzenesulfonamides as nanomolar inhibitors of carbonic anhydrase isoforms I, II, IX, and XII: design, synthesis, in-vitro, and in-silico biological studies” (Journal of Enzyme Inhibition and Medicinal Chemistry, 2022)
